From patent US20110001042A1, “ASSESSING TREATMENT COMPLIANCE” (priority 2007, published 2011)
Values joined by “and” are separate entries in the source; they are usually repeats but may differ in a detail not shown here. Identical values can stand only once.

How the values were obtained:
[1] = sensitivity and specificity of urine fluticasone 17β carboxylic acid after witnessed fluticasone propionate administration in asthma patients; type: in vivo, human; details: Fluticasone Administered Under Observation, 16-24 hours before sample
Protocol: In order to evaluate the sensitivity and specificity of fluticasone 17β carboxylic acid, nineteen patients with asthma were recruited. Nine of these subjects were on treatment with fluticasone propionate. As a gold standard of compliance, treatment was documented by an RN study nurse who witnessed the patients' administration of fluticasone propionate 16-24 hours prior to submission of a urine sample for the analysis of fluticasone 17 β carboxylic acid. Urine samples from ten subjects with asthma but not receiving fluticasone propionate were used as controls.

[2] = fluticasone-17β carboxylic acid in urine of patients before, during and after FP therapy by LC-MS/MS; type: in vivo, human
Protocol: Fluticasone-17β carboxylic acid was extracted from urine using an acetonitrile precipitation followed by methylene chloride liquid extraction of the supernatant. Sixty μL of the reconstituted sample extract was analyzed by LC-MS/MS (ABI 4000). The linearity, precision, recovery and limit of quantitation (LOQ) were determined. Measurement of fluticasone-17β carboxylic acid in urine collected daily from patients before (days 1-2), during (days 3-6; total dose Flovent 110 2 puffs daily), and following cessation of FP therapy (days 7-14) was conducted (n=4). The linear range of fluticasone-17β carboxylic acid measured by LC-MS/MS was 10-9510 pg/mL. The LOQ with a CV<20% was 10 pg/mL, and recovery ranged from 85.8-111.9% with a mean of 97.9%. Within-run precision testing indicated a maximum CV of 9.3% at 10.3 pg/mL. Between-run precision CVs for urine pools spiked with 3 concentrations of fluticasone-17 β carboxylic acid were 10.6% at 11.1 pg/mL, 11.2% at 500.9 pg/mL, and 8.7% at 5116 pg/mL. Detection of fluticasone-17β carboxylic acid in urine from patients prior to FP therapy was <10 pg/mL (days 1 & 2), ranged from 157-1830 pg/mL when receiving therapy (days 3-6) and was undetectable 5 days after stopping therapy (days 11-14). An eight-point calibration curve (0, 10, 25, 100, 200, 1000, 2000, and 10000 pg/mL) and three controls (10, 500 and 5000 pg/mL) were prepared in charcoal stripped-urine and included with each assay run. Aliquots of urine were centrifuged for 5 minutes at 1000g to remove particulate matter. A 1.0 mL fraction of each calibrator, control, and urine sample was transferred into an appropriately labeled 12×75 mm glass tube. Internal standard (100 μL of 40 ng/mL fluorometholone working solution per sample) was added to each calibrator, control, and urine sample followed by gentle vortexing and incubation for 5 minutes at ambient temperature. Acetonitrile with 0.1% HCl (1.5 mL/sample) was then added, and tubes were vortexed and centrifuged at 1500g for 10 minutes. […]

[3] = fluticasone 17β carboxylic acid measured in urine with and without preservatives; type: physicochemical; details: individual specimens, mean, bias
Protocol: Fluticasone 17β carboxylic acid was measured in urine samples lacking preservatives or urine samples containing one of the following preservatives: boric acid, glacial acetic acid, HCL, toluene, or sodium bicarbonate (Table 5).
In summary, non-preserved urine can be used effectively. Samples acquired with boric acid preservative indicated an individual bias of −0.6 to 5.0% and a mean bias of 1.4% from non-preserved urine specimen. Samples acquired in glacial acetic acid preservative indicated an individual bias of −18.9 to 17.1% and a mean bias of −1.2% from non-preserved urine specimen. Samples acquired in HCL preservative indicated an individual bias of −14.5 to 9.1% and a mean bias of −5.8% from non-preserved urine specimen. Samples acquired in sodium bicarbonate preservative indicated an individual bias of −94.7 to −92.5% and a mean bias of −93.8% from non-preserved urine specimen. Samples acquired in toluene preservative indicated an individual bias of −10.6 to 9.8% and a mean bias of 0.3% from non-preserved urine specimen. Thus, urine containing boric acid, glacial acetic acid, HCL, or toluene are acceptable. Urine containing sodium bicarbonate preservative is not as acceptable.

[4] = stability of fluticasone 17β carboxylic acid in pooled urine stored ambient, refrigerated or freeze/thaw; type: physicochemical; details: for % Diff. 3: Ambient, Day 3; for % Diff 7: Day 7
Protocol: Fluticasone 17β carboxylic acid was measured in pooled urine samples lacking preservatives that were stored at ambient temperature, were refrigerated, or were frozen and subjected to freeze/thaw cycles (Table 6).
Fluticasone 17β carboxylic acid was measured in pooled urine samples containing boric acid as a preservative that were stored at ambient temperature, were refrigerated, or were frozen and subjected to freeze/thaw cycles (Table 7).
Fluticasone 17β carboxylic acid was measured in pooled urine samples containing glacial acetic acid as a preservative that were stored at ambient temperature, were refrigerated, or were frozen and subjected to freeze/thaw cycles (Table 8).
Fluticasone 17β carboxylic acid was measured in pooled urine samples containing hydrochloric acid as a preservative that were stored at ambient temperature, were refrigerated, or were frozen and subjected to freeze/thaw cycles (Table 9).
Fluticasone 17β carboxylic acid was measured in pooled urine samples containing toluene as a preservative that were stored at ambient temperature, were refrigerated, or were frozen and subjected to freeze/thaw cycles (Table 10).

In the case of CCC(=O)O[C@]1(C(=O)O)[C@H](C)C[C@H]2[C@@H]3C[C@H](F)C4=CC(=O)C=C[C@]4(C)[C@@]3(F)[C@@H](O)C[C@@]21C [Fluticasone 17β carboxylic acid], the “Negative Urine (number of subjects)” value [1] is reported as 0, the “Positive Urine (number of subjects)” value [1] is reported as 9 and the “fluticasone-17β carboxylic acid in urine” value ([2]; 5 days after stopping therapy (days 11-14)) is reported as “undetectable”. The “fluticasone-17β carboxylic acid in urine” value ([2]; patients prior to FP therapy (days 1 & 2)) was less than 10 pg/mL, the “fluticasone-17β carboxylic acid in urine” value ([2]; patients receiving therapy (days 3-6; Flovent 110 2 puffs daily)) was 157 to 1830 pg/mL and the “% Difference between No Pres & HCL” value ([3]; urine with HCL) was −14.5 to 9.1% and −5.8% and 9.1% and −12.1% and −14.5%. For the same compound, the “% Difference between No Pres & BA” value ([3]; urine with boric acid) was −0.6 to 5.0% and 1.4% and 5.0% and −0.6% and −0.3%, the “% Difference between No Pres & GAA” value ([3]; urine with glacial acetic acid) was −18.9 to 17.1% and −1.2% and 17.1% and −1.7% and −18.9% and the “% Difference between No Pres & Na2CO3” value ([3]; urine with sodium bicarbonate) was −94.7 to −92.5% and −93.8% and −94.2% and −94.7% and −92.5%. For the same compound, the “% Difference between No Pres & Toluene” value ([3]; urine with toluene) was 0.3% and −10.6 to 9.8% and −10.6% and 9.8% and 1.6%, the time stable ([4]; boric acid-preserved urine, ambient temperature) was 7 days and the freeze-thaw cycles stable ([4]; boric acid-preserved urine, frozen) was “up to 1 freeze-thaw cycle”. For the same compound, the time stable ([4]; boric acid-preserved urine, refrigerated) was 3 days, the time stable ([4]; glacial acetic acid-preserved urine, ambient temperature) was 7 days and the freeze-thaw cycles stable ([4]; glacial acetic acid-preserved urine, frozen) was “up to 2 freeze-thaw cycles”. The time stable ([4]; hydrochloric acid-preserved urine, ambient temperature) was 7 days, the freeze-thaw cycles stable ([4]; hydrochloric acid-preserved urine, frozen) was “up to 1 freeze-thaw cycle” and the time stable ([4]; hydrochloric acid-preserved urine, refrigerated) was 3 days. The time stable ([4]; non-preserved urine, ambient temperature) was 3 days, the freeze-thaw cycles stable ([4]; non-preserved urine, frozen) was “up to 3 freeze-thaw cycles” and the time stable ([4]; non-preserved urine, refrigerated) was 7 days. The freeze-thaw cycles stable ([4]; toluene-preserved urine, immediately frozen) was “up to 3 freeze-thaw cycles”, the “% Diff. 3” value ([4]; urine Boric Acid) was 1.2% and −1.3% and −7.9% and the “% Diff. 3” value ([4]; urine Boric Acid, mean) was −2.7%. For the same compound, the “% Diff. 1” value ([4]; urine Boric Acid, Freeze/Thaw, F/T 1) was −9.3% and −5.4% and −10.1%, the “% Diff. 1” value ([4]; urine Boric Acid, Freeze/Thaw, F/T 1, mean) was −8.3% and the “% Diff 7” value ([4]; urine Boric Acid, Refrigerated) was −14.5% and −10.1% and −16.3%. The “% Diff 7” value ([4]; urine Boric Acid, Refrigerated, mean) was −13.7%, the “% Diff. 1” value ([4]; urine HCL, Refrigerated, Day 1) was −4.6% and −2.6% and −9.5% and the “% Diff. 1” value ([4]; urine HCL, Refrigerated, Day 1, mean) was −5.6%. For the same compound, the “% Diff 7” value ([4]; urine HCL, Refrigerated) was −17.1% and −8.5%, the “% Diff 7” value ([4]; urine HCL, Refrigerated, mean) was −11.4% and the “% Diff. 1” value ([4]; urine Toluene, Refrigerated, Day 1) was −19.5% and −12.4% and −11.4%. The “% Diff. 1” value ([4]; urine Toluene, Refrigerated, Day 1, mean) was −14.4%, the “% Diff. 1” value ([4]; urine no pres, Freeze/Thaw, F/T 1) was 0.0% and −6.6% and −6.1% and the “% Diff. 1” value ([4]; urine no pres, Freeze/Thaw, F/T 1, mean) was −4.2%. For the same compound, the “% Diff. 1” value ([4]; urine no pres, Refrigerated, Day 1) was −7.5% and −4.4% and −11.5% and the “% Diff. 1” value ([4]; urine no pres, Refrigerated, Day 1, mean) was −7.8%.
